Reference: BindingDB's records for doi:10.1021/acs.jmedchem.6b00705 (Leiden Institute of Chemistry, 2016)

Tests used:
[1] = biological target: Proteasome subunit beta type-2 (Homo sapiens, UniProt P49721); test: Inhibition of catalytic activity of constitutive proteasome 20s subunit beta2 in human Raji cells incubated for 1 hr by BODIPY(FL)-LU-112 probe based competitive activity based protein profiling assay
[2] = Inhibition of catalytic activity of immunoproteasome 20s subunit beta2 in human Raji cells incubated for 1 hr by BODIPY(FL)-LU-112 probe based competitive activity based protein profiling assay

IC50 [1] | IC50 [2] | Structure (SMILES)
60 nM |  | CC(C)C[C@H](NC(=O)[C@H](Cc1ccccc1)NC(=O)[C@H](CCc1ccccc1)NC(=O)[C@H](Cc1ccccc1)N=[N+]=[N-])C(=O)[C@@]1(C)CO1
66 nM |  | CC(C)C[C@H](NC(=O)[C@H](Cc1ccccc1)NC(=O)[C@H](Cc1ccccc1)NC(=O)[C@H](Cc1ccccc1)N=[N+]=[N-])C(=O)[C@@]1(C)CO1 [(S)-2-azido-N-((S)-1-((S)-1-((S)-4-methyl-1-((R)-2-methyloxiran-2-yl)-1-oxopentan-2-ylamino)-1-oxo-3-phenylpropan-2-ylamino)-1-oxo-3-phenylpropan-2-yl)-3-phenylpropanamide]
110 nM |  | COc1ccc(C[C@H](NC(=O)[C@H](Cc2ccccc2)N=[N+]=[N-])C(=O)N[C@@H](Cc2ccccc2)C(=O)N[C@@H](CC(C)C)C(=O)[C@@]2(C)CO2)cc1

More lines, now with the values behind:

Structure (SMILES) | IC50 [1] | IC50 [2]
CC(C)C[C@H](NC(=O)CN1CCOCC1)C(=O)N[C@@H](C[C@H]1CC[C@H](C2CCCCC2)CC1)C(=O)N[C@@H](Cc1ccccc1)C(=O)N[C@@H](C)C(=O)[C@@]1(C)CO1 | > 100000 nM | > 100000 nM
CC(C)C[C@H](NC(=O)[C@H](Cc1ccccc1)NC(=O)[C@H](CC1CCC(C)CC1)NC(=O)[C@H](Cc1ccccc1)N=[N+]=[N-])C(=O)[C@@]1(C)CO1 (some centres not stated) | 46 nM | 
C[C@H](NC(=O)[C@H](Cc1ccccc1)NC(=O)[C@H](C[C@H]1CC[C@H](c2ccccc2)CC1)NC(=O)[C@H](Cc1ccccc1)N=[N+]=[N-])C(=O)[C@@]1(C)CO1 | > 100000 nM | > 100000 nM
C[C@H](NC(=O)[C@H](Cc1ccccc1)NC(=O)[C@H](C[C@H]1CC[C@@H](c2ccccc2)CC1)NC(=O)[C@H](Cc1ccccc1)N=[N+]=[N-])C(=O)[C@@]1(C)CO1 | > 100000 nM | 300 nM
CC1=C(C(=O)N[C@H](C)C(=O)N[C@@H](Cc2c[nH]c3ccccc23)C(=O)N[C@@H](CC2CCCCC2)C(=O)[C@@]2(C)CO2)Cc2ccccc21 | > 1000 nM | > 1000 nM
